Reference: US10968225B2, “Compounds and compositions for the treatment of cystic fibrosis” (Fondazione Istituto Italiano Di Tecnologia, priority 2017, dated 2021)
Where a name gives a salt, the structure may show the parent alone.

Target: T1, mutant CFTR (Homo sapiens, UniProt P13569, DEL508-508)
T1 construct: expressed in transfected cells
Experiment: Fluorescence (HS-YFP) assay for CFTR activity, corrector assay
Format: cell-based
Settings: CFBE41o- and FRT cells with stable expression of mutant CFTR, read-out: activity (EC50)

T1 sequence (P13569 with tags, fused parts or gaps DEL508-508): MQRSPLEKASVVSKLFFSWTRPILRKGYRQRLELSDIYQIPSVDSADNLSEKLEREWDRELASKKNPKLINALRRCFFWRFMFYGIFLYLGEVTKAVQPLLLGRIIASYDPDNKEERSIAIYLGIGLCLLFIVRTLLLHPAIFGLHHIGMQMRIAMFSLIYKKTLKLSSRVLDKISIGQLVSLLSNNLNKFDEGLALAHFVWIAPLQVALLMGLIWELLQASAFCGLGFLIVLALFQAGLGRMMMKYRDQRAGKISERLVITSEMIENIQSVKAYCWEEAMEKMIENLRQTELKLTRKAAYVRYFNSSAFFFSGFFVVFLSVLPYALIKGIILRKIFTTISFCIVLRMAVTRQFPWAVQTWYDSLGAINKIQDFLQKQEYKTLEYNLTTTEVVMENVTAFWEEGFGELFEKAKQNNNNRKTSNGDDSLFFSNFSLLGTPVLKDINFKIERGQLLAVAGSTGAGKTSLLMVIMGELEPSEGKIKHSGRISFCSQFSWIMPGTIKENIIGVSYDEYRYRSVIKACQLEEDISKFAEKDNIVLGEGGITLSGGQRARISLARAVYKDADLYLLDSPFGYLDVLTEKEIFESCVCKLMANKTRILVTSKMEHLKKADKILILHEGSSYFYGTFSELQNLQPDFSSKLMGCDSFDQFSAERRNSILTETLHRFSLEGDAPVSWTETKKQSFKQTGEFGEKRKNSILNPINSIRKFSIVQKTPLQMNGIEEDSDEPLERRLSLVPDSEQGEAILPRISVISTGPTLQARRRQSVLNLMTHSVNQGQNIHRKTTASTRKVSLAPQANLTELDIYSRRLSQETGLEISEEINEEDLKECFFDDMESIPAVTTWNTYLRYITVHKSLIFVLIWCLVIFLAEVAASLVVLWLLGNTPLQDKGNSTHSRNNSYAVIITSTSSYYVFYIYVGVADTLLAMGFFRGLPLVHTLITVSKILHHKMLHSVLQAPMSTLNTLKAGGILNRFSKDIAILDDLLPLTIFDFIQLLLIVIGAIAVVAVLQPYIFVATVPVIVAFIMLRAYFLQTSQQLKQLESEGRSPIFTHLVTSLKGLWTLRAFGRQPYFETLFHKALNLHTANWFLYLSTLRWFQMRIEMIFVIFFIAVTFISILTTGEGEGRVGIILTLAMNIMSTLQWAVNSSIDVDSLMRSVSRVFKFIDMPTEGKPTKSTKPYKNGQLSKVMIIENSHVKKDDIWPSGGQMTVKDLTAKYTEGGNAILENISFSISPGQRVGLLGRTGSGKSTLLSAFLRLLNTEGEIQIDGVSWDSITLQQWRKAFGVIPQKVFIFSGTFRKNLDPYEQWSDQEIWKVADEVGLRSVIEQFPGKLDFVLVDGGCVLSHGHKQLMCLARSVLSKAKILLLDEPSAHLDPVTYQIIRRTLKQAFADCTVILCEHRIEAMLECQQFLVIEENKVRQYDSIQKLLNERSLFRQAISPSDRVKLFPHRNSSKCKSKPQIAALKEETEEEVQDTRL

SMILES	EC50 [nM]
CN(C(=O)c1cccc(-n2nc(C(F)(F)F)c3c2CCN(S(=O)(=O)c2ccccc2)C3)c1)c1ccc2c(c1)OCO2 [Compound 007, 3-[5-(Benzenesulfonyl)-3-(trifluoromethyl)-6,7-dihydro-4H-pyrazolo[4,3-c]pyridin-1-yl]-N-(1,3-benzodioxol-5-yl)-N-methyl-benzamide]	< 1000
CN(C(=O)c1cccc(-n2nc(C(F)(F)F)c3c2C(Oc2cncc(C(=O)O)c2)CCC3)c1)c1ccc2c(c1)OC(F)(F)O2 (single isomer, unassigned) [Compound 271, (S) or (R)-5-[[1-[3-[(2,2-Difluoro-1,3-benzodioxol-5-yl)-methyl-carbamoyl]phenyl]-3-(trifluoromethyl)-4,5,6,7-tetrahydroindazol-7-yl]oxy]pyridine-3-carboxylic acid]	< 1000
CC(=O)N1CCc2c(c(C(F)(F)F)nn2-c2cccc(C(=O)N(C)c3ccc4c(c3)OCO4)c2)C1 [Compound 004, 3-[5-Acetyl-3-(trifluoromethyl)-6,7-dihydro-4H-pyrazolo[4,3-c]pyridin-1-yl]-N-(1,3-benzodioxol-5-yl)-N-methyl-benzamide]	< 1000
CN(C(=O)c1cccc(-n2nc(C(F)(F)F)c3c2C(Oc2ccc(C(=O)O)cc2)CCC3)c1)c1cncc(C#N)c1 (racemic) [Compound 310, 4-[[1-[3-[(5-Cyano-3-pyridyl)-methyl-carbamoyl]phenyl]-3-(trifluoromethyl)-4,5,6,7-tetrahydroindazol-7-yl]oxy]benzoic acid]	1000 to 2000
CN(C(=O)c1cccc(-n2nc(C(F)(F)F)c3c2C(Oc2ccc(C(=O)O)cc2)CCC3)c1)c1ccc2c(c1)OCC2 (racemic) [Compound 261, (rac)-4-[[1-[3-[2,3-Dihydrobenzofuran-6-yl(methyl)carbamoyl]phenyl]-3-(trifluoromethyl)-4,5,6,7-tetrahydroindazol-7-yl]oxy]benzoic acid]	< 1000
COc1ncc(N(C)C(=O)c2cccc(-n3nc(C(F)(F)F)c4c3C(Oc3ccc(C(=O)O)cc3)COC4)c2)cn1 (racemic) [Compound 306, 4-[[1-[3-[(2-Methoxypyrimidin-5-yl)-methyl-carbamoyl]phenyl]-3-(trifluoromethyl)-6,7-dihydro-4H-pyrano[4,3-c]pyrazol-7-yl]oxy]benzoic acid]	1000 to 2000
CN(C(=O)c1cccc(-n2nc(C(F)(F)F)c3c2CC2CCC3N2)c1)c1ccc2c(c1)OCO2 (racemic) [Compound 022, N-(Benzo[d][1,3]dioxol-5-yl)-N-methyl-3-(3-(trifluoromethyl)-5,6,7,8-tetrahydro-4,7-epiminocyclohepta[c]pyrazol-1(4H)-yl)benzamide hydrochloride]	< 1000
CN(c1ccc2c(c1)OCO2)S(=O)(=O)c1cccc(-n2nc(C(F)(F)F)c3c2CCNC3)c1 [Compound 066, N-(1,3-Benzodioxol-5-yl)-N-methyl-3-[3-(trifluoromethyl)-4,5,6,7-tetrahydropyrazolo[4,3-c]pyridin-1-yl] benzenesulfonamide hydrochloride]	< 1000
CN(C(=O)c1cccc(-n2nc(C(F)(F)F)c3c2CCN(C(=O)C2(O)CC2)C3)c1)c1ccc2c(c1)OCO2 [Compound 034, N-(1,3-Benzodioxol-5-yl)-3-[5-(1-hydroxycyclopropanecarbonyl)-3-(trifluoromethyl)-6,7-dihydro-4H-pyrazolo[4,3-c]pyridin-1-yl]-N-methyl-benzamide]	< 1000
CC(=O)Nc1ccc(N(C)C(=O)c2cccc(-n3nc(C(F)(F)F)c4c3CCN(C)C4)c2)cc1O [Compound 041, N-(4-Acetamido-3-hydroxy-phenyl)-N-methyl-3-[5-methyl-3-(trifluoromethyl)-6,7-dihydro-4H-pyrazolo[4,3-c]pyridin-1-yl]benzamide]	> 2000
COc1cc(N(C)C(=O)c2cccc(-n3nc(C(F)(F)F)c4c3CCN(C(=O)C(C)(C)C)C4)c2)ccn1 [Compound 090, 3-[5-(2,2-Dimethylpropanoyl)-3-(trifluoromethyl)-6,7-dihydro-4H-pyrazolo[4,3-c]pyridin-1-yl]-N-(2-methoxy-4-pyridyl)-N-methyl-benzamide]	< 1000
CN(C(=O)c1cccc(-n2nc(C(F)(F)F)c3c2CCN(CCCC(=O)O)C3)c1)c1ccc2c(c1)OCO2 [Compound 135, 4-[1-[3-[1,3-Benzodioxol-5-yl(methyl)carbamoyl]phenyl]-3-(trifluoromethyl)-6,7-dihydro-4H-pyrazolo[4,3-c]pyridin-5-yl]butanoic acid]	> 2000
CN(C(=O)c1cccc(-n2nc(C(F)(F)F)c3c2C(Oc2ccc(C(=O)O)cn2)CCC3)c1)c1ccc2c(c1)OC(F)(F)O2 (single isomer, unassigned) [Compound 194, (R) or (S)-6-[[1-[3-[(2,2-Difluoro-1,3-benzodioxol-5-yl)-methyl-carbamoyl]phenyl]-3-(trifluoromethyl)-4,5,6,7-tetrahydroindazol-7-yl]oxy]pyridine-3-carboxylic acid]	< 1000
CN(C(=O)c1cccc(-n2nc(C(F)(F)F)c3c2C(Oc2ncc(C(=O)O)cn2)COC3)c1)c1cnc2c(c1)OCC2 (racemic) [Compound 300, 2-[[1-[3-[2,3-Dihydrofuro[3,2-b]pyridin-6-yl(methyl)carbamoyl]phenyl]-3-(trifluoromethyl)-6,7-dihydro-4H-pyrano[4,3-c]pyrazol-7-yl]oxy]pyrimidine-5-carboxylic acid]	< 1000
Cc1cn2cc(NC(=O)c3cccc(-n4nc(C(F)(F)F)c5c4CCN(C(=O)C(C)(C)C)C5)c3)ccc2n1 [Compound 084, 3-[5-(2,2-Dimethylpropanoyl)-3-(trifluoromethyl)-6,7-dihydro-4H-pyrazolo[4,3-c]pyridin-1-yl]-N-(2-methylimidazo [1,2-a]pyridin-6-yl)benzamide]	> 2000
CN(C(=O)c1cccc(-n2nc(C(F)(F)F)c3c2CCN(C2CC(C(=O)O)C2)C3)c1)c1ccc2c(c1)OCO2 (centres unmarked) [Compound 140, 3-[1-[3-[1,3-Benzodioxol-5-yl(methyl)carbamoyl]phenyl]-3-(trifluoromethyl)-6,7-dihydro-4H-pyrazolo[4,3-c]pyridin-5-yl]cyclobutanecarboxylic acid]	> 2000
CN(C(=O)c1cccc(-n2nc(C(F)(F)F)c3c2C(n2cc(C(=O)O)ccc2=O)COC3)c1)c1ccc2c(c1)OC(F)(F)O2 (racemic) [Compound 301, (rac)-6-oxo-1-[1-[3-[(2,2-difluoro-1,3-benzodioxol-5-yl)-methyl-carbamoyl]phenyl]-3-(trifluoromethyl)-6,7-dihydro-4H-pyrano[4,3-c]pyrazol-7-yl]pyridine-3-carboxylic acid]	1000 to 2000
CN(C(=O)c1cccc(-n2nc(C(F)(F)F)c3c2C(Oc2ccc(C(=O)O)cc2)COC3)c1)c1ccc2c(c1)OCC2 (single isomer, unassigned) [Compound 283, (S) or (R)-4-[[1-[3-[2,3-dihydrobenzofuran-6-yl(methyl)carbamoyl]phenyl]-3-(trifluoromethyl)-6,7-dihydro-4H-pyrano[4,3-c]pyrazol-7-yl]oxy]benzoic acid]	1000 to 2000
CN(C(=O)c1cccc(-n2nc(C(F)(F)F)c3c2C[C@H]2CC[C@@H]3N2C)c1)c1ccc2c(c1)OCO2 (single isomer, unassigned) [Compound 050, (4R,7S)- or (4S,7R)—N-(Benzo[d][1,3]dioxol-5-yl)-N-methyl-3-(9-methyl-3-(trifluoromethyl)-5,6,7,8-tetrahydro-4,7-epiminocyclohepta[c]pyrazol-1(4H)-yl)benzamide]	< 1000
CN(C(=O)c1cccc(-n2nc(C(F)(F)F)c3c2CCN(S(=O)(=O)c2ccc(C#N)cc2)C3)c1)c1ccc2c(c1)OCO2 [Compound 063, N-(1,3-Benzodioxol-5-yl)-3-[5-(4-cyanophenyl)sulfonyl-3-(trifluoromethyl)-6,7-dihydro-4H-pyrazolo[4,3-c]pyridin-1-yl]-N-methyl-benzamide]	< 1000
CN(C(=O)c1cccc(-n2nc(C(F)(F)F)c3c2C(Oc2ncc(C(=O)O)cn2)COC3)c1)c1ccc2c(c1)OCC2 (single isomer, unassigned) [Compound 299, (S) or (R)-2-[[1-[3-[2,3-dihydrobenzofuran-6-yl(methyl)carbamoyl]phenyl]-3-(trifluoromethyl)-6,7-dihydro-4H-pyrano[4,3-c]pyrazol-7-yl]oxy]pyrimidine-5-carboxylic acid]	1000 to 2000
Cc1nn(-c2cccc(C(=O)N(C)c3ccc4c(c3)OC(F)(F)O4)c2)c2c1CCCC2 [Compound 103, N-(2,2-Difluoro-1,3-benzodioxol-5-yl)-N-methyl-3-(3-methyl-4,5,6,7-tetrahydroindazol-1-yl)benzamide]	> 2000
CN(C(=O)c1cccc(-n2nc(C(F)F)c3c2C(Oc2ccc(C(=O)O)cc2)CCC3)c1)c1ccc2c(c1)OC(F)(F)O2 (racemic) [Compound 254, (rac)-4-[[1-[3-[(2,2-difluoro-1,3-benzodioxol-5-yl)-methyl-carbamoyl]phenyl]-3-(difluoromethyl)-4,5,6,7-tetrahydroindazol-7-yl]oxy]benzoic acid]	< 1000
Cc1nn(CCC(=O)O)c(C)c1S(=O)(=O)N1CCc2c(c(C(F)(F)F)nn2-c2cccc(C(=O)N(C)c3ccc4c(c3)OCO4)c2)C1 [Compound 086, 3-[4-[[1-[3-[1,3-Benzodioxol-5-yl(methyl)carbamoyl]phenyl]-3-(trifluoromethyl)-6,7-dihydro-4H-pyrazolo[4,3-c]pyridin-5-yl]sulfonyl]-3,5-dimethyl-pyrazol-1-yl] propanoic acid]	< 1000
CN(C(=O)c1cccc(-n2nc(C(F)(F)F)c3c2C(Oc2ccc(C(=O)O)cc2)CCC3)c1)c1cncc(Cl)c1 (racemic) [Compound 309, 4-[[1-[3-[(5-chloro-3-pyridyl)-methyl-carbamoyl]phenyl]-3-(trifluoromethyl)-4,5,6,7-tetrahydroindazol-7-yl]oxy]benzoic acid]	> 2000
Cc1nc2ccc(NC(=O)c3cccc(-n4nc(C(F)(F)F)c5c4CCN(C(=O)C(C)(C)C)C5)c3)cn2n1 [Compound 078, 3-[5-(2,2-Dimethylpropanoyl)-3-(trifluoromethyl)-6,7-dihydro-4Hpyrazolo[4,3-c]pyridin-1-yl]-N-(2-methyl-[1,2,4]triazolo[1,5-a]pyridin-6-yl)benzamide]	> 2000
